In one assay the test system is mice (C57BI/6J). The assay is described as follows: Photothrombotic cerebral cortex infarct model in mice. Type of assay: in vivo, mouse. The conditions noted are these: for Infarct volume, 5 DPI carrier versus 5 DPI drug (ANOVA, Holm-Sidak): Nx-2 p=0.025, Nx-1 p=0.886. The procedure: All in vivo experiments were performed with University of New South Wales (UNSW) Sydney Animal Care and Ethics Committee approval. To undertake this randomized blinded photothrombotic study, male and female mice (C57BI/6J) aged 2-4 months (20-30 g) were anaesthetised with a 4% isoflurane induction (on O2) and fixed onto a stereotaxic frame. Anaesthesia was maintained at 1.5% isoflurane for the rest of the procedure. The animals were constantly monitored for their heart rate and oxygen saturation with their body temperature maintained at 37±1° C. (Kent Scientific Physiology Suite system). An ophthalmological ointment was applied to the eyes for corneal protection. Analgesia Temgesic (Buprenorphine; 0.15 mg/kg; 0.32 mg/ml) was administered intramuscularly, using a 27G needle. The skull was shaved over the target cerebral cortex region and a local anaesthetic Lignocaine was injected subcutaneously (27 needle; 20 mg/ml). A midline incision was made through the skin to expose the cranium and the periosteum was removed. The surface of the cranium was made lucid by applying ophthalmological gel over the surface. The fibre-optic coupled green LED (532 nm; ˜1 mW; 1 mm diameter light guide, Thorlabs, USA) was placed over the left hemisphere of cerebral cortex (3 mm rostral to lambda; 2 mm from the midline) followed by injection of photosensitising dye Rose Bengal (50 mg/kg) with a 29G needle via the tail vein. The skull was illuminated for 5 minutes to trigger the localized thrombus formation at the target region of cerebral cortex. The skin was then sutured and the isoflurane anaesthesia was discontinued, while providing 100% oxygen until the mice regained consciousness. Mice were injected with saline (intraperitoneal, 250 μl) during the recovery phase for rehydration. The mouse was maintained on the rectal probe feedback controlled heating pad in a recovery cage until ambulatory (˜20 min) and then the animal was placed back in its cage with food and water. The mice were monitored for signs of post-operative stress on a daily basis for the five day treatment period. Mice were administered with either the carrier or Nx-2 drug (100 mg/kg) via a rectal suppository, 45 minutes after the photothrombotic lesion, and then every 24 hours for a further 4 days in the conscious mouse. At 5 days post-infarct, the mice were euthanized via an intraperitoneal injection of Lethabarb (100 mg/kg; 27 G needle), following which the mice were transcardially perfused with 4% paraformaldehyde (PFA) in phosphate buffer (0.1 M, pH 7.4). The brains were dissected out and post-fixed for overnight in 4% PFA at 4° C. The brains were cryoprotected in 10% and 30% sucrose made in 0.01 M PBS solutions overnight respectively. Images of the surface infarct were captured on a dissecting microscope. Following cryoprotection, the brains were sectioned coronally (50 μm thick) and kept in 0.01 M PBS until they were imaged under the darkfield microscope. The Image J (NIH) software was used to measure the surface area of the infarct and darkfield sections enabled measurement of the cross sectional area of the infarct (Image J, NIH). Total infarct volume was quantified by summation of areas of infarct from darkfield sections integrated with thickness of the tissue. Descriptive statistics, ANOVA and t-tests were performed to detect the significance difference among the treatment groups using Sigmaplot (Systat software, version 12.0) after establishing normal distribution of the data (alpha=0.05).
The skull of the mouse (C57BI/6J strain) was exposed to enable fibre optic illumination of a region of the cerebral cortex with green light (532 nm) to trigger localized thrombus formation due to tail vein injection of the photo sensitizing dye Rose Bengal. Macroscopic representation of the photo-thrombotic infarct was assessed 5 days post injury in mice treated with carrier only or with Nx-1 drug. […]

Assay [1] relates to rHEK293-GCaMP5g cells. The assay is described as follows: Carbachol-induced Ca2+ store release in rHEK293-GCaMP5g cells (FlexStation 3). Type of assay: cell-based, human. The conditions noted are these: for EC50: carbachol 100 μM in Ca2+ free solution, areas under the curve (RFU) normalised to DMSO control, read-out: EC50, inhibition of Ca2+ store release; for Block of carbachol-induced Ca2+ store release: compound 4 μM, carbachol 100 μM, Ca2+ free solution. An excerpt:
(§1) Untransfected human embryonic kidney 293 (HEK293) cells are a model for neuronal cell Ca^2+ signalling via Gq type G protein-coupled receptors (such as the metabotropic glutamate receptors). […] The current study utilised a custom-developed recombinant human embryonic kidney 293 (rHEK293) cell line stably over-expressing a genetically encoded Ca^2+ reporter (GCaMP5g—after [Akerboom J et al., 2012 Journal of Neuroscience, 32(40): 13819-13840]). This enabled imaging of the Ca^2+ store release under conditions where Carbachol (muscarinic receptor agonist)—induced Ca^2+ store release via the endogenous M3 muscarinic receptor—was delivered in a solution (in mM: NaCl 145; KCl 5.8; MgCl2 0.9; HEPES 10, NaH2PO4 0.7, d-glucose 5.6; pH 7.2-7.4, osmolarity 310-330 mOsm/L), lacking Ca^2+, to the wells containing the adherent rHEK293-GCaMP5g cells, using a FlexStation 3 multi-modal microplate reader (Molecular Devices). This paradigm, with sustained Carbachol presentation, results in extrusion of the cytosolic Ca^2+ from the cell via plasma membrane Ca^2+ pumps, alongside Ca^2+ store depletion. When Ca^2+ is then added to the media, a Ca^2+ signal is detected that reflects Ca^2+ entry into the cells via Ca^2+ entry pathways [Elliott, 2001 Cell calcium, 30, 73-93].
(§2) This study investigated the effect of Nx-1 and Nx-2 on the Ca^2+ re-entry in the rHEK293-GCaMP5g cells using the FlexStation 3 plate reader in ‘Flex Read’ configuration (485 nm excitation, 510 nm emission, 6 flashes per sample, medium detector sensitivity, 37° C., 780 sample points at 1.54 s intervals). The cells were seeded into the 96 well plates in DMEM media with 10% foetal calf serum supplement. The cells approached confluence at ˜66 hours at which stage the cells were washed with the Ca^2+-free solution, and then the drug was added in Ca^2+ free solution (80 μl) and the plate was then placed into the FlexStation plate reader (37° C.) and rested for 30 minutes prior to imaging. The Carbachol (final concentration 100 μM in Ca^2+ free solution; drug at specified concentration) was added 180 seconds after the start of the Ca^2+ imaging read. The Ca^2+ entry was triggered at 480 seconds by adding 10 μl of Carbachol in Ca^2+ solution with the drug (final concentrations: 100 uM Carbachol, Ca^2+1.3 mM; drug at specified concentration). The Ca^2+ imaging proceeded for a total duration of 20 minutes. Controls utilized DMSO carrier at corresponding dilution used with the drug at specified concentrations. Data analysis was based on the areas under the curves (RFU—relative fluorescence Units), with statistical analysis using Sigmaplot (Systat software, version 12.0) and graphics produced using Graphpad Prism (Graphpad Software, version 7.02).

Assay [2] concerns rHEK293-GCaMP5g cells. Description: Ca2+ re-entry in rHEK293-GCaMP5g cells after Ca2+ store depletion (FlexStation 3). The conditions noted are these: carbachol 100 μM; for EC50: Ca2+ 1.3 mM restored, areas under the curve (RFU) normalised to DMSO control, read-out: EC50, inhibition of Ca2+ re-entry; for Block of Ca2+ re-entry: compound 4 μM, 1.3 mM Ca2+ restored. Type of assay: cell-based, human.
Text: as §1, §2

Values joined by “and” are separate entries in the source; they are usually repeats but may differ in a detail not shown here. Identical values can stand only once. “Also recorded” adds a separate entry of the source.

The term EC50 denotes the concentration that produces a half-maximal response.

For `COc1ccc(C2c3ccc(O)cc3OCC2c2ccc(O)cc2)cc1` (racemic) [Nx-2], the “Infarct volume, 5 DPI carrier versus 5 DPI drug (ANOVA, Holm-Sidak)” value with mice (C57BI/6J) (100 mg/kg) is “significant difference”. Besides, the “Surface infarct area, 5 DPI drug versus core infarct (2 HPI control)” value in the assay with mice (C57BI/6J) (100 mg/kg, p=0.064) is reported as “not significantly different”. In addition, the “Neuroprotection, share of the penumbra expansion (surface infarct area)” value in the assay on mice (C57BI/6J) (5 DPI, 100 mg/kg, relative to 2 HPI core infarct and 5 DPI carrier) stood at 50%. Also, in the assay with mice (C57BI/6J) (5 days post infarct, 100 mg/kg rectal suppository 45 min after lesion then every 24 h for 4 days, individual mice), the infarct surface area was 6.56 mm^2 (2×) and 8.99 mm^2 and 8.19 mm^2 and 5.79 mm^2 and 6.70 mm^2. In addition, in the assay with mice (C57BI/6J) (Table 3, 5 days post infarct, Nx-2 100 mg/kg rectal suppository, individual mice), the infarct volume was 13.29 mm^3 and 10.34 mm^3 and 14.65 mm^3 and 12.02 mm^3 and 10.51 mm^3 and 13.76 mm^3. Further, in the assay on rHEK293-GCaMP5g cells [1], the EC50 was ~600 nM and ~700 nM; the “Block of carbachol-induced Ca2+ store release” value was “Block; also recorded: virtually blocked”. In addition, in the assay on rHEK293-GCaMP5g cells [2], the EC50 is ~600 nM and ~700 nM; the “Block of Ca2+ re-entry” value is reported as “Block”.
As for `Oc1ccc(C2=Cc3ccc(O)cc3OC2)cc1` [Nx-1], the “Infarct volume, 5 DPI carrier versus 5 DPI drug (ANOVA, Holm-Sidak)” value with mice (C57BI/6J) (100 mg/kg) is given as “not significantly different”. For the same compound, the infarct volume is 11.80 mm^3 and 18.94 mm^3 and 14.16 mm^3 and 16.84 mm^3 in the assay with mice (C57BI/6J) (Table 5, 5 days post infarct, Nx-1 100 mg/kg, individual mice); 11.80 mm^3 and 18.94 mm^3 and 14.16 mm^3 and 16.84 mm^3 in the assay on mice (C57BI/6J) (Table 7, 5 days post infarct, Nx-1 100 mg/kg, individual mice). Besides, the EC50 with rHEK293-GCaMP5g cells [1] (Homo sapiens) is approximately 1500 nM; in the assay with rHEK293-GCaMP5g cells [1] it was approximately 2000 nM; in the assay with rHEK293-GCaMP5g cells [2] (Homo sapiens) it was approximately 1500 nM; in the assay with rHEK293-GCaMP5g cells [2], approximately 2000 nM. Also, in the assay on rHEK293-GCaMP5g cells [1], the “Block of carbachol-induced Ca2+ store release” value is reported as “block; also recorded: virtually blocked”. In the assay on rHEK293-GCaMP5g cells [2], the “Block of Ca2+ re-entry” value is recorded as “blocked”.

These data come from patent publication US20200215025A1, “TREATMENT OF EXCITOTOXICITY” (priority 2017, published 2020).
